Data from PubChem BioAssay AID328 (DTP/NCI, 2004).
Where “and” joins values, the source holds several entries; their conditions need not be identical. Equal entries are not always repeated. Toxic doses and inconclusive results are not listed.

System: BDF1 mice, P388 leukemia ip, median survival T/C
Experiment: NCI In Vivo Anticancer Drug Screen. Data for tumor model P388 Leukemia (intraperitoneal) in B6D2F1 (BDF1) mice
Conditions: endpoint: median survival time, higher = longer survival
Outline: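 T/C = treated-group survival ÷ vehicle-control survival; tumour transplanted into mice before dosing.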

[1] = dose: 100.0 mg/kg/injection, schedule: Q01DX009 (ip), vehicle: saline with Tween-80
[2] = dose: 200.0 mg/kg/injection, schedule: Q01DX009 (ip), vehicle: saline with Tween-80
[3] = dose: 50.0 mg/kg/injection, schedule: Q01DX009 (ip), vehicle: saline with Tween-80
[4] = dose: 25.0 mg/kg/injection, schedule: Q01DX009 (ip), vehicle: saline with Tween-80
[5] = dose: 12.5 mg/kg/injection, schedule: Q01DX009 (ip), vehicle: saline with Tween-80
[6] = dose: 12.5 mg/kg/injection, schedule: Q04DX003 (ip), vehicle: saline with Tween-80
[7] = dose: 25.0 mg/kg/injection, schedule: Q04DX003 (ip), vehicle: saline with Tween-80
[8] = dose: 200.0 mg/kg/injection, schedule: Q04DX003 (ip), vehicle: saline
[9] = dose: 50.0 mg/kg/injection, schedule: Q01DX009 (ip), vehicle: Klucel (hydroxypropylcellulose) (HPC)

For `Cc1ccc(/C(C#N)=C2C=C(Br)/C(=N\O)C=C/2Cl)cc1`, the T/C (dose: 28.12 mg/kg/injection, schedule: Q04DX003 (ip), vehicle: Klucel (hydroxypropylcellulose) (HPC)) was 100 % of control, the T/C (dose: 56.25 mg/kg/injection, schedule: Q01DX009 (ip), vehicle: Klucel (hydroxypropylcellulose) (HPC)) was 115 % of control and the T/C (dose: 56.25 mg/kg/injection, schedule: Q04DX003 (ip), vehicle: Klucel (hydroxypropylcellulose) (HPC)) was 100 % of control. For the same compound, the T/C (dose: 100.0 mg/kg/injection, schedule: Q01DX001 (ip), vehicle: Klucel (hydroxypropylcellulose) (HPC)) was 90 % of control, the T/C (dose: 112.5 mg/kg/injection, schedule: Q01DX009 (ip), vehicle: Klucel (hydroxypropylcellulose) (HPC)) was 110 % of control and the T/C (dose: 112.5 mg/kg/injection, schedule: Q04DX003 (ip), vehicle: Klucel (hydroxypropylcellulose) (HPC)) was 100 % of control. For the same compound, the T/C (dose: 150.0 mg/kg/injection, schedule: Q01DX009 (ip), vehicle: Klucel (hydroxypropylcellulose) (HPC)) was 100 % of control, the T/C (dose: 170.0 mg/kg/injection, schedule: Q04DX003 (ip), vehicle: Klucel (hydroxypropylcellulose) (HPC)) was 105 % of control and the T/C (dose: 200.0 mg/kg/injection, schedule: Q01DX001 (ip), vehicle: Klucel (hydroxypropylcellulose) (HPC)) was 104 % of control. For the same compound, the T/C (dose: 225.0 mg/kg/injection, schedule: Q01DX009 (ip), vehicle: Klucel (hydroxypropylcellulose) (HPC)) was 105 % of control, the T/C (dose: 255.0 mg/kg/injection, schedule: Q04DX003 (ip), vehicle: Klucel (hydroxypropylcellulose) (HPC)) was 110 % of control and the T/C (dose: 335.0 mg/kg/injection, schedule: Q01DX009 (ip), vehicle: Klucel (hydroxypropylcellulose) (HPC)) was 100 % of control. The T/C (dose: 380.0 mg/kg/injection, schedule: Q04DX003 (ip), vehicle: Klucel (hydroxypropylcellulose) (HPC)) was 100 % of control.

In the case of `COC1=C(N)C(=O)c2ncccc2C1=O`, the T/C (dose: 4.0 mg/kg/injection, schedule: Q01DX010 (ip), vehicle: acetone) was 113 % of control and the T/C (dose: 8.0 mg/kg/injection, schedule: Q01DX010 (ip), vehicle: acetone) was 109 % of control.

For `COc1ccc(N=Cc2cccs2)cc1`, the T/C [1] was 119 % of control, the T/C [2] was 96 % of control and the T/C (dose: 400.0 mg/kg/injection, schedule: Q01DX009 (ip), vehicle: saline with Tween-80) was 100 % of control.

`Cc1[nH]n(CCO)c(=O)c1N=O` was tested, and the T/C (dose: 15.0 mg/kg/injection, schedule: Q01DX009 (ip), vehicle: saline with Tween-80) was 95 % of control, the T/C (dose: 30.0 mg/kg/injection, schedule: Q01DX009 (ip), vehicle: saline with Tween-80) was 93 % of control and the T/C (dose: 60.0 mg/kg/injection, schedule: Q01DX009 (ip), vehicle: saline with Tween-80) was 100 % of control.

With `COC1=C(C)C(=O)C2=C(C1=O)C1C3CC4=C(C(=O)C(OC)=C(C)C4=O)C(CNC(=O)C(C)=O)N3C(C#N)C(C2)N1C` (stereo unspecified) the T/C (dose: 0.31 mg/kg/injection, schedule: Q01DX009 (ip), vehicle: Klucel (hydroxypropylcellulose) (HPC)) was 151 % of control, the T/C (dose: 0.62 mg/kg/injection, schedule: Q01DX009 (ip), vehicle: Klucel (hydroxypropylcellulose) (HPC)) was 183 % of control and the T/C (dose: 1.25 mg/kg/injection, schedule: Q01DX009 (ip), vehicle: Klucel (hydroxypropylcellulose) (HPC)) was 159 % of control.

With `COC(=O)c1ccc(CSc2ccccc2NC(=S)Nc2cccc(SC)c2)o1` the T/C [3] was 90 % of control, the T/C [1] was 92 % of control and the T/C [2] was 90 % of control.

With `CC1=NNC(=O)/C1=C\c1ccc(N(C)C)cc1` the T/C [4] was 95 % of control and the T/C [1] was 93 % of control.

`O=C(CNC(=O)Nc1ccc(C2=NCCN2)cc1)Nc1ccc(C2=NCCN2)cc1` was tested, and the T/C [5] was 104 % of control, the T/C [6] was 100 % of control and the T/C (dose: 22.0 mg/kg/injection, schedule: Q01DX009 (ip), vehicle: saline with Tween-80) was 100 % of control. The T/C [4] was 120 % of control, the T/C [7] was 118 % of control and the T/C (dose: 33.0 mg/kg/injection, schedule: Q01DX009 (ip), vehicle: saline with Tween-80) was 114 % of control. For the same compound, the T/C [3] was 166 % of control, the T/C (dose: 50.0 mg/kg/injection, schedule: Q04DX003 (ip), vehicle: saline with Tween-80) was 109 % of control and the T/C (dose: 75.0 mg/kg/injection, schedule: Q01DX009 (ip), vehicle: saline with Tween-80) was 153 % of control.

`O=C(Cn1cc(F)c(=O)[nH]c1=O)c1cccs1` was tested, and the T/C (dose: 100.0 mg/kg/injection, schedule: Q01DX009 (ip), vehicle: saline) was 100 % of control, the T/C (dose: 100.0 mg/kg/injection, schedule: Q04DX003 (ip), vehicle: saline) was 95 % of control and the T/C (dose: 200.0 mg/kg/injection, schedule: Q01DX009 (ip), vehicle: saline) was 100 % of control. The T/C [8] was 90 % of control, the T/C (dose: 400.0 mg/kg/injection, schedule: Q01DX009 (ip), vehicle: saline) was 95 % of control and the T/C (dose: 400.0 mg/kg/injection, schedule: Q04DX003 (ip), vehicle: saline) was 90 % of control.

With `Nc1nc(=S)c2[nH]c(N=Nc3ccc(S(=O)(=O)Nc4ncccn4)cc3)nc2[nH]1` the T/C [9] was 118 % of control, the T/C (dose: 50.0 mg/kg/injection, schedule: Q04DX003 (ip), vehicle: Klucel (hydroxypropylcellulose) (HPC)) was 108 % of control and the T/C (dose: 100.0 mg/kg/injection, schedule: Q01DX009 (ip), vehicle: Klucel (hydroxypropylcellulose) (HPC)) was 100 % of control. The T/C (dose: 100.0 mg/kg/injection, schedule: Q04DX003 (ip), vehicle: Klucel (hydroxypropylcellulose) (HPC)) was 108 % of control, the T/C (dose: 200.0 mg/kg/injection, schedule: Q01DX009 (ip), vehicle: Klucel (hydroxypropylcellulose) (HPC)) was 86 % of control and the T/C (dose: 200.0 mg/kg/injection, schedule: Q04DX003 (ip), vehicle: Klucel (hydroxypropylcellulose) (HPC)) was 112 % of control.

With `O=C1C=CC(=O)N1c1ccc(-c2nc3ccccc3o2)cc1` the T/C (dose: 50.0 mg/kg/injection, schedule: Q01DX005 (ip), vehicle: saline with Tween-80) was 121 % of control and the T/C (dose: 100.0 mg/kg/injection, schedule: Q01DX005 (ip), vehicle: saline with Tween-80) was 100 % of control.

`C[n+]1ccc(Nc2ccc(NC(=O)c3ccc(Nc4cc[n+](C)c5ccc([N+](=O)[O-])cc45)cc3[N+](=O)[O-])cc2)cc1` was tested, and the T/C (dose: 25.0 mg/kg/injection, schedule: Q04DX003 (ip), vehicle: saline) was 105 % of control and 116 % of control and the T/C [8] was 158 % of control and 203 % of control.

In the case of `CCCCCCC(=O)CC(SCC)c1ccc(Cl)cc1` (stereo unspecified), the T/C [3] was 98 % of control, the T/C [1] was 102 % of control and the T/C [2] was 112 % of control.

`Cc1c(O)ccc([N+](=O)[O-])c1O` was tested, and the T/C (dose: 6.25 mg/kg/injection, schedule: Q01DX009 (ip), vehicle: saline with Tween-80) was 91 % of control, the T/C (dose: 6.25 mg/kg/injection, schedule: Q04DX003 (ip), vehicle: saline with Tween-80) was 104 % of control and the T/C [5] was 100 % of control. The T/C [6] was 91 % of control, the T/C [4] was 91 % of control and the T/C [7] was 104 % of control.

With `CCSc1ccc2c(cc1=O)[C@@H](NC1OC(CO)C(O)C(O)C1O)CCc1cc(OC)c(OC)c(OC)c1-2` (stereo partly specified) the T/C (dose: 50.0 mg/kg/injection, schedule: Q01DX009 (ip), vehicle: other) was 106 % of control and 111 % of control, the T/C (dose: 100.0 mg/kg/injection, schedule: Q01DX009 (ip), vehicle: other) was 106 % of control and 115 % of control and the T/C (dose: 200.0 mg/kg/injection, schedule: Q01DX009 (ip), vehicle: other) was 112 % of control.

With `COc1ccc(C(C)c2ccccc2)cc1C(C)c1ccccc1` (stereo unspecified) the T/C (dose: 100.0 mg/kg/injection, schedule: Q04DX003 (ip), vehicle: saline with Tween-80) was 109 % of control, the T/C (dose: 200.0 mg/kg/injection, schedule: Q04DX003 (ip), vehicle: saline with Tween-80) was 90 % of control and the T/C (dose: 400.0 mg/kg/injection, schedule: Q04DX003 (ip), vehicle: saline with Tween-80) was 100 % of control.

With `COc1cc([N+](=O)[O-])c(C)cc1NC(=O)c1ccc(OC)c(OC)c1` the T/C (dose: 0.78 mg/kg/injection, schedule: Q01DX009 (ip), vehicle: saline) was 100 % of control, the T/C (dose: 1.56 mg/kg/injection, schedule: Q01DX009 (ip), vehicle: saline) was 115 % of control and the T/C (dose: 3.12 mg/kg/injection, schedule: Q01DX009 (ip), vehicle: saline) was 88 % of control. For the same compound, the T/C (dose: 6.25 mg/kg/injection, schedule: Q01DX009 (ip), vehicle: saline) was 86 % of control.

`N=C1SCc2ccc3ccccc3c21` was tested, and the T/C [3] was 104 % of control and the T/C [1] was 106 % of control.

In the case of `Cc1ccc(NC(=O)NCC2(C)CC(NC(=O)Nc3ccc(C)cc3)CC(C)(C)C2)cc1` (stereo unspecified), the T/C (dose: 12.5 mg/kg/injection, schedule: Q01DX009 (ip), vehicle: Klucel (hydroxypropylcellulose) (HPC)) was 100 % of control, the T/C (dose: 25.0 mg/kg/injection, schedule: Q01DX009 (ip), vehicle: Klucel (hydroxypropylcellulose) (HPC)) was 100 % of control and the T/C [9] was 100 % of control. For the same compound, the T/C (dose: 75.0 mg/kg/injection, schedule: Q01DX009 (ip), vehicle: Klucel (hydroxypropylcellulose) (HPC)) was 90 % of control, the T/C (dose: 115.0 mg/kg/injection, schedule: Q01DX009 (ip), vehicle: Klucel (hydroxypropylcellulose) (HPC)) was 90 % of control and the T/C (dose: 170.0 mg/kg/injection, schedule: Q01DX009 (ip), vehicle: Klucel (hydroxypropylcellulose) (HPC)) was 90 % of control.
